Data from publication PMC3712578, “Luteolin is a novel p90 ribosomal S6 kinase (RSK) inhibitor that suppresses Notch4 signaling by blocking the activation of Y-box binding protein-1 (YB-1)” (Oncotarget, 2013).

Experiments:
RSK1 [1] = biological target: T1, RSK1 (Homo sapiens, UniProt Q15418); assay: biochemical; design: In vitro RSK1 kinase assay with S6K peptide substrate, dose-response 0.001-100 uM
T1 construct: gene RPS6KA1

RSK2 [2] = biological target: T2, RSK2 (Homo sapiens, UniProt P51812); assay: biochemical; design: In vitro RSK2 kinase assay with S6K peptide substrate, dose-response 0.001-100 uM (SignalChem)
T2 construct: gene RPS6KA3
T2 sequence (P51812 whole entry): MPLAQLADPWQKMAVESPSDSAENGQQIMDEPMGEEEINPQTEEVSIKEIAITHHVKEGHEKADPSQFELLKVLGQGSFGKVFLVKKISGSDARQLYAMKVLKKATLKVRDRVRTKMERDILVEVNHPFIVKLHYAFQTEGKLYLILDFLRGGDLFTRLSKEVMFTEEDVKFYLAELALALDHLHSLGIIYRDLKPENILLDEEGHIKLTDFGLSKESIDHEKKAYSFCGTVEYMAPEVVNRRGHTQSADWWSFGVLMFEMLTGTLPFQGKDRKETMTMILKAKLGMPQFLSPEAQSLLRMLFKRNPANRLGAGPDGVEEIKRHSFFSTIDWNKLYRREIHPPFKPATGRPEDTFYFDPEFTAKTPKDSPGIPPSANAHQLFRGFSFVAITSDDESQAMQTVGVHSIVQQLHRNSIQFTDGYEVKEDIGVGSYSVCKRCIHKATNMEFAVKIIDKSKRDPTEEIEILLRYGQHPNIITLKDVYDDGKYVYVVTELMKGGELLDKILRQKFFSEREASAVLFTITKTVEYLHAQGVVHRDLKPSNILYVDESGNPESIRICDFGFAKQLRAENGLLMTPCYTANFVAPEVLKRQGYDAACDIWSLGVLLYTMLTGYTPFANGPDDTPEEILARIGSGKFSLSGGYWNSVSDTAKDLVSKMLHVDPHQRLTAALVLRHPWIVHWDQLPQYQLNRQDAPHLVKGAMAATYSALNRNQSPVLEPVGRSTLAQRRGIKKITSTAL
Experimental: Following the RSK1 screen, a broad dose-response study (0.001-100 μM) was conducted against RSK2 using the YB-1 peptide as a substrate in cell-free assays (Table 2). […] Kinase profiling services for RSK2 were provided by SignalChem, as previously described. […] To confirm inhibition of RSK2 activity, we also repeated the kinase assay with a secondary RSK substrate, S6K.

RSK2 [3] = biological target: T2, RSK2; assay: in vitro RSK2 kinase assay, YB-1 peptide substrate; assay type: biochemical
RSK1 [4] = biological target: T1, RSK1; assay: in vitro RSK1 kinase assay, YB-1 peptide ([…] screen) and S6K peptide dose response; assay type: biochemical
[5] = read-out: Inhibition of RSK2 (%) against the YB-1 peptide as the substrate / IC50

T1 sequence (Q15418 whole entry): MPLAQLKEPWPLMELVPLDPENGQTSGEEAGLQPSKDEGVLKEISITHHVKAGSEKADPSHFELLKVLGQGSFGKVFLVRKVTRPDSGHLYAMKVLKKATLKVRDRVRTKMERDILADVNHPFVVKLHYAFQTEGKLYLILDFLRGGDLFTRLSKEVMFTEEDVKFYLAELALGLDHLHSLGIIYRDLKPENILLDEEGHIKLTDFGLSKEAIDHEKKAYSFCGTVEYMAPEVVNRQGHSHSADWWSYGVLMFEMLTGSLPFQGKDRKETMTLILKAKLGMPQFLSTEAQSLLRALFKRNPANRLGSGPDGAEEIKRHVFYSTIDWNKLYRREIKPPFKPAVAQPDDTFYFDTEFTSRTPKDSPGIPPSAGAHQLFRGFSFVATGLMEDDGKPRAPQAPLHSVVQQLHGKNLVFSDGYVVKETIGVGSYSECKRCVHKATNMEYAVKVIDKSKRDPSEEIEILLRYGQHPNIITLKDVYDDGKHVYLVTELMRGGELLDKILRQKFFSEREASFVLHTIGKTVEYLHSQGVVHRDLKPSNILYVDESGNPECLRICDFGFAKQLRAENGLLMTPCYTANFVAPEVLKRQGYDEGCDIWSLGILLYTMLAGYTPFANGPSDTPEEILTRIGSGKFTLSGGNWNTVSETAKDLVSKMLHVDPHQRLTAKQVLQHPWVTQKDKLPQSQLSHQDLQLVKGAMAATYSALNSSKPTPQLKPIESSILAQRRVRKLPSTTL

SMILES	IC50 (RSK1 [1])	IC50 (RSK2 [2])	IC50 (RSK2 [3])	IC50 (RSK2 [3]; [5])	in vitro RSK1 kinase assay, YB-1 peptide (10 μM screen) and S6K peptide dose res (RSK1 [4])
O=c1cc(-c2ccc(O)cc2)oc2cc(O)cc(O)c12 [Apigenin]	3780 nM	3480 nM	4770 nM		
O=c1c(O)c(-c2ccc(O)cc2)oc2cc(O)cc(O)c12 [Kaempferol]	1480 nM	760 nM		1710 nM	all three compounds inhibited the kinase activity of both isoforms in the low micromolar range
O=c1cc(-c2ccc(O)c(O)c2)oc2cc(O)cc(O)c12 [Luteolin]	2250 nM			4420 nM	all three compounds inhibited the kinase activity of both isoforms in the low micromolar range
